Experiment [1] concerns the target T1, ryanodine receptor 1 (RyR1) (Homo sapiens, UniProt P21817).
T1 construct: wild-type human skeletal myotubes
Kind of experiment: Fura-2 Ca2+ imaging, inhibition of Ca2+ release induced by […] ryanodine. Format: cell-based.

For experiment [2], the target named is T2, ryanodine receptor 1 (RyR1) (Oryctolagus cuniculus, UniProt P11716).
T2 construct: full-length RyR1 purified from wild-type rabbit skeletal muscle; with FKBP12.6
Kind of experiment: protection from AziPm photolabelling ([…] propofol) in purified RyR1; the IC50 is from [3H]ryanodine binding in wild-type heavy SR vesicles at pCa […] (species not given, assumed).

Experiment [3] has as its target T2, ryanodine receptor 1 (RyR1). The experiment can be described thus: photoaffinity labelling of purified RyR1-FKBP12.[…] with MS; the IC50 is from [3H]ryanodine binding in wild-type heavy SR vesicles at pCa […] (species not given, assumed).

One may read the IC50 as the concentration that gives 50% inhibition.

T2 sequence (P11716 whole entry): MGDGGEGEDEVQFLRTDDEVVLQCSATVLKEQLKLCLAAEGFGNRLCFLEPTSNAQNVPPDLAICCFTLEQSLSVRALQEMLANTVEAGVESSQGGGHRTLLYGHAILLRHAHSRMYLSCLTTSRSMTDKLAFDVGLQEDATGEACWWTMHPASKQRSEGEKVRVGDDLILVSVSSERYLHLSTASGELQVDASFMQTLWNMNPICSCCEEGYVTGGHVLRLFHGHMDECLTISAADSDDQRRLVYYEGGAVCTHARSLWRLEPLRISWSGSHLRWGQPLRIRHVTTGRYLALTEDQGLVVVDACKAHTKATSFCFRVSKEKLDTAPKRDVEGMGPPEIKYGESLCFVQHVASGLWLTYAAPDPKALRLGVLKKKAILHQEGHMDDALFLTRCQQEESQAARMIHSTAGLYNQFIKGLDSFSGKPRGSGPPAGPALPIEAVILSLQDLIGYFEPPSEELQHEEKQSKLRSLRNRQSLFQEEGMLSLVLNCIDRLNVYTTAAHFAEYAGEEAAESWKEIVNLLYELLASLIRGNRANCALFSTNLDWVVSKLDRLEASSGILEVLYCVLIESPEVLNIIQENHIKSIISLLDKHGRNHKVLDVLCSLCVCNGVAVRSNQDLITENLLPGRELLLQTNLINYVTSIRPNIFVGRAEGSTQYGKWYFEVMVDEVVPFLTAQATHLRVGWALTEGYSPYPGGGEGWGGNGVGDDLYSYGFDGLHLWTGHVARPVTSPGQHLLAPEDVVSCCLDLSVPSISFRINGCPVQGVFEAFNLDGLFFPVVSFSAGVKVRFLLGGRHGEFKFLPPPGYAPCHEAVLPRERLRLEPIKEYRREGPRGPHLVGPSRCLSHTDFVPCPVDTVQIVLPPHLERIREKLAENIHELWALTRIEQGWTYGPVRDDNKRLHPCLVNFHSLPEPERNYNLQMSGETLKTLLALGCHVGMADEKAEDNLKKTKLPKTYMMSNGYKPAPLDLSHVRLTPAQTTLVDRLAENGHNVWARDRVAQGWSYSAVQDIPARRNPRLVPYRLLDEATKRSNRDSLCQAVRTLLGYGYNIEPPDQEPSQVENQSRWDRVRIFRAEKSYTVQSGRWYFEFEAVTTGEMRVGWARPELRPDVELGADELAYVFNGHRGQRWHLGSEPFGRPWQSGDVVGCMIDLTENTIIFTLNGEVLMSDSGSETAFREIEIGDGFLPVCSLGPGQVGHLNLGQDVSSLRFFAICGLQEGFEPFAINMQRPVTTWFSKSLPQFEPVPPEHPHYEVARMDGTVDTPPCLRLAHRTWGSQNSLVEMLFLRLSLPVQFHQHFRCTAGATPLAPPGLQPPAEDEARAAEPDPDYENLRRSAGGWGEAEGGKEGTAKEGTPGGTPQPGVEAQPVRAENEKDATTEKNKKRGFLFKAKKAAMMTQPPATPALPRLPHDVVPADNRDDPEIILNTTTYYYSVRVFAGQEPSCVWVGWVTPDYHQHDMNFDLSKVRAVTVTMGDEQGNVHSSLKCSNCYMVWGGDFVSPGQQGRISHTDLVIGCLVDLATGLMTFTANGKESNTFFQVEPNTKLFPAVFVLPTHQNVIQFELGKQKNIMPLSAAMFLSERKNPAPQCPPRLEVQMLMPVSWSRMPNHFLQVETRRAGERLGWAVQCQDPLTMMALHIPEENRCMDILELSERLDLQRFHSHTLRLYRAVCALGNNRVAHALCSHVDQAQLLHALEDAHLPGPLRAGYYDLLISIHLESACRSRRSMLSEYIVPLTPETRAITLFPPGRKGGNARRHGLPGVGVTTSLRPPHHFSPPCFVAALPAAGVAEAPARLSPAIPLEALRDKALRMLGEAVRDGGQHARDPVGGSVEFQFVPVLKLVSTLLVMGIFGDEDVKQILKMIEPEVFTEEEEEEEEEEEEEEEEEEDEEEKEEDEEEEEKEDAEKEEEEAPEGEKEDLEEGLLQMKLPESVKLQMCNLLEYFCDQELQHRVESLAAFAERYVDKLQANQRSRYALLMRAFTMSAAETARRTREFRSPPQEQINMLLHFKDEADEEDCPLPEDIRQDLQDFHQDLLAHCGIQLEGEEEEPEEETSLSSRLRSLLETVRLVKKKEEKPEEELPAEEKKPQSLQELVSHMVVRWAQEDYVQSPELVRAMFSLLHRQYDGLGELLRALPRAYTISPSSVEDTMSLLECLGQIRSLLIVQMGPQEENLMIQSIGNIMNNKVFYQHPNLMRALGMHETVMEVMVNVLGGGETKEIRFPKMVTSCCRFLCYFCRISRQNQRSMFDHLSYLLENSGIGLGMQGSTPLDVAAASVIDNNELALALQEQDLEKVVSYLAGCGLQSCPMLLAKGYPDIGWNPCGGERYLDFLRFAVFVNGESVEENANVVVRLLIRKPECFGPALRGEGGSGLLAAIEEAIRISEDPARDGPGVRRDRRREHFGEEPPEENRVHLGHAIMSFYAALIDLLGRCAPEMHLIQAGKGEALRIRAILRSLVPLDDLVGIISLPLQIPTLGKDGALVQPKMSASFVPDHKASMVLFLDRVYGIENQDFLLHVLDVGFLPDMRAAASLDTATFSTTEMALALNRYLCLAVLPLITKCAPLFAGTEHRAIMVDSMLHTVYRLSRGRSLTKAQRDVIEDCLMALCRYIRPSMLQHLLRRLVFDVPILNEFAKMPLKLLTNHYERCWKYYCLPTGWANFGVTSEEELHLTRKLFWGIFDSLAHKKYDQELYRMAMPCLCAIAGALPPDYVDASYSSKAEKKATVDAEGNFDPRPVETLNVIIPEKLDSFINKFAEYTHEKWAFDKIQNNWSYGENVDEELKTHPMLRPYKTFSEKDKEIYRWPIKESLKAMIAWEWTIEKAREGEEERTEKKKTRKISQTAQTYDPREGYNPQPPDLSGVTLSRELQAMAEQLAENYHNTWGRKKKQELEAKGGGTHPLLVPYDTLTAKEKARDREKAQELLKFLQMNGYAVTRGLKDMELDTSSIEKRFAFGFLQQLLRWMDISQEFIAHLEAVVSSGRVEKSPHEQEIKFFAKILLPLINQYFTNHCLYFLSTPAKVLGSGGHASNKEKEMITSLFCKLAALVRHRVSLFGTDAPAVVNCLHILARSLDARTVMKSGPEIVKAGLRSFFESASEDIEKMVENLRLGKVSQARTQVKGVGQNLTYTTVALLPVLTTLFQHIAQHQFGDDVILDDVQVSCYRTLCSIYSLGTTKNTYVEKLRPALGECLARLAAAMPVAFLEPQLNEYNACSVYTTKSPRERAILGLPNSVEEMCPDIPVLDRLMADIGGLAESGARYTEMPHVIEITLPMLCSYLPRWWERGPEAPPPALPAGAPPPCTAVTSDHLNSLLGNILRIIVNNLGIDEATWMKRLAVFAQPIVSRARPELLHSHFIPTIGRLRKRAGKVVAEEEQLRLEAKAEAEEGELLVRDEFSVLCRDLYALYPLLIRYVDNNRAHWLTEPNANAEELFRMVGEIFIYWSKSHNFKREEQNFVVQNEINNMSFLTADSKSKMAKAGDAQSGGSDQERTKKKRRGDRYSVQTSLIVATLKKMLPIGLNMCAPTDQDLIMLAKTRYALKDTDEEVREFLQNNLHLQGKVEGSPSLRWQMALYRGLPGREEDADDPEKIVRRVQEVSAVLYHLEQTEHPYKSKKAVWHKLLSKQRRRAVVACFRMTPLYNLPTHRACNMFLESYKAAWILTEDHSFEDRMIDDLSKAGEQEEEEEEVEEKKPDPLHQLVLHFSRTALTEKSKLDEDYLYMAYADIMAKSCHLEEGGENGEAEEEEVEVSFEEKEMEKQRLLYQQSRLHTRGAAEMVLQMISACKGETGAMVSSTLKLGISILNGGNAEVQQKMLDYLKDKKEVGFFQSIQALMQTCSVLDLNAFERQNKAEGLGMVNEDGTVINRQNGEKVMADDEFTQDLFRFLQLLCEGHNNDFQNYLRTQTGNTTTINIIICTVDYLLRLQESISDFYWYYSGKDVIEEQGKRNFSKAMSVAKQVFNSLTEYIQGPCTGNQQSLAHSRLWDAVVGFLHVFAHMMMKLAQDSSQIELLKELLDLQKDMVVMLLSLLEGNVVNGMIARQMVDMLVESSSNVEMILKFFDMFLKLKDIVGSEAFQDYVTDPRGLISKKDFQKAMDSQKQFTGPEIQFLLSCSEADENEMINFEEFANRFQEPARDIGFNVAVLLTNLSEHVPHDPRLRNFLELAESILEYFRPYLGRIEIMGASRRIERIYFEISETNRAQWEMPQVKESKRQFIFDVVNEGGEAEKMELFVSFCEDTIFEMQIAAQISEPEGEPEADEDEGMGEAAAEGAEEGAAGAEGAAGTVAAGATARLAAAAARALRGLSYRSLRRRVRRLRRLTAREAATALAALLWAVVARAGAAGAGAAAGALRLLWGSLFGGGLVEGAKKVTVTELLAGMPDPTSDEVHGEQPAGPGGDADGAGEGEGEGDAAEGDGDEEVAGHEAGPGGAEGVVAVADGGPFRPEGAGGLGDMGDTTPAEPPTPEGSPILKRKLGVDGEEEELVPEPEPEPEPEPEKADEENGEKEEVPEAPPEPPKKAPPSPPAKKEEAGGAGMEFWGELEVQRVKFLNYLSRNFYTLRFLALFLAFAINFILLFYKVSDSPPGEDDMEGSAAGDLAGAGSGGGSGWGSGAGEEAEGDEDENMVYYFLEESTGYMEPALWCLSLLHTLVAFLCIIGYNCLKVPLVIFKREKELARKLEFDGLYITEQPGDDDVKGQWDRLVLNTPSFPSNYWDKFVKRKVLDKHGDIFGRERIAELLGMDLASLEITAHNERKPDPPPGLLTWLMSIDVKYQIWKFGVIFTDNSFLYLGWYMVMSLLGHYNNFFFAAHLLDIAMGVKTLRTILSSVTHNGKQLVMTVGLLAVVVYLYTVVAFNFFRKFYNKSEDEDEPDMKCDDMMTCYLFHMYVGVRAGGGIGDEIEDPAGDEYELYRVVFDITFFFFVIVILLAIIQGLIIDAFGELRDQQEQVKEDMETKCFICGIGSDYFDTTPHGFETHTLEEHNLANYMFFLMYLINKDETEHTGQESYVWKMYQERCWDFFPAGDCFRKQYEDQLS

As for `CC(C)c1cccc(C(C)C)c1O` [Propofol], the IC50 in experiment [1] is 29.5 µM; in experiment [2] it was 5.8 µM. For the compound `CC(C)c1ccc(C2(C(F)(F)F)N=N2)cc1O` [m-azipropofol], the IC50 in experiment [3] was found to be 6.9 µM.

Source of the values: article PMC11488158 (BJA: British Journal of Anaesthesia, 2024).
